Some test systems named below: DU-145 prostate; HCT-15 colon; KM12 colon; MDA-MB-231 breast; NCI-H460 lung; NCI/ADR-RES ovarian; OVCAR-4 ovarian; SN12C renal; T-47D breast; UO-31 renal.
Holding throughout (test): NCI anticancer screen, dose series, 48 h

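Test compounds were applied to cells in 96-well plates for 48 hours at 5 doses. Abbreviation: GI50, concentration required for 50% inhibition of growth. TGI is the concentration that stops growth completely.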 Bounds are passed on as bounds.

For the molecule `COc1ccc(-c2cc(-c3ccccc3)nc(SCCCC(=O)NO)n2)cc1`, the GI50 in the assay with DU-145 prostate is 1.06 µM; in the assay with HCT-15 colon, 0.387 µM; in the assay with KM12 colon, 1.72 µM; with MDA-MB-231 breast, 1.57 µM; in the assay on NCI-H460 lung, 0.468 µM; in the assay on NCI/ADR-RES ovarian, 0.267 µM. For the same molecule, the GI50 was 1.26 µM in the assay on OVCAR-4 ovarian, 1.61 µM in the assay on SN12C renal, 0.804 µM in the assay with T-47D breast and 0.239 µM in the assay on UO-31 renal. In addition, the TGI was determined as 9.58 µM with DU-145 prostate; 3.34 µM in the assay with HCT-15 colon; 5.29 µM in the assay on KM12 colon; 6.1 µM in the assay with MDA-MB-231 breast; 5.65 µM in the assay with NCI-H460 lung; 1.6 µM with NCI/ADR-RES ovarian. Further, the TGI in the assay on OVCAR-4 ovarian came out at 9.01 µM; in the assay with SN12C renal, 8 µM; with T-47D breast, 15.1 µM; in the assay on UO-31 renal, 0.991 µM.
With `N=C(N)c1ccc(N2CCCN(c3ccc(C(=N)N)cc3)CC2)cc1`, the GI50 with DU-145 prostate is 46.7 µM; in the assay on HCT-15 colon, 65.3 µM; in the assay on KM12 colon, 62.1 µM; in the assay with MDA-MB-231 breast, greater than 100 µM; in the assay with NCI-H460 lung, 50.6 µM; in the assay on NCI/ADR-RES ovarian, greater than 100 µM. In addition, the GI50 is greater than 100 µM in the assay on OVCAR-4 ovarian, 66.6 µM in the assay on SN12C renal, 22.6 µM with T-47D breast and greater than 100 µM in the assay on UO-31 renal. Besides, the TGI in the assay with DU-145 prostate, in the assay with HCT-15 colon, with KM12 colon, in the assay on MDA-MB-231 breast, in the assay on NCI-H460 lung and in the assay on NCI/ADR-RES ovarian was greater than 100 µM each time. In addition, the TGI in the assay on OVCAR-4 ovarian was greater than 100 µM; in the assay on SN12C renal, greater than 100 µM; in the assay with T-47D breast, 81 µM; with UO-31 renal it was greater than 100 µM.
